According to US8772323B2, “Benzoxazole- and tetrahydrobenzoxazole-substituted pyridazinones as GPR119 agonists” (Boehringer Ingelheim International GmbH, priority 2010, dated 2014):
Structures can show the parent of a compound that is named as a salt.

Molecular target: human GPR119 (Homo sapiens (Human), UniProt Q8TDV5)
Test: AlphaScreen cAMP assay in Min-6/hGPR119 cells (GPR119 activation, intracellular cAMP)
Type: cell-based
Details: MIN6 cells stably transfected with human GPR119; 45 minutes' incubation at RT; AlphaScreen cAMP Assay Kit
Method: The compounds of formula I according to the invention are GPR119 agonists. The effect of the compounds on the activation of GPR119 and on the stimulation of intracellular cAMP concentration is determined using the AlphaScreen cAMP Assay Kit (Cat. No. #6760625R) made by PerkinElmer.
MIN6 cells [Miyazaki J et al. Endocrinology. 1990 July; 127(1):126-32] were stably transfected with an expression vector for human GPR119 cDNA (Acc. No. NP_848566). Min-6/hGPR119 cells are cultured in DMEM, 10% FBS, 50 μM β-mercaptoethanol, 0.3 mg/mL Geniticin, 2 mM GlutaMAX at 37° C. 5% CO2. For the assay, the cells are placed in Optiplates (white, 384-well, 160W-barcoded, TC, sterile with lid, Cat. No. #6007688 (Perkin Elmer); 10000 cells/well; 50 μl). The plates covered with lids are then incubated for 24 hours at 37° C./5% CO2.
After the medium has been sucked out of the wells completely, 10 μl of the test compound are added, the compounds are diluted beforehand with stimulating buffer (140 mM NaCl, 3.6 mM KCl, 0.5 mM NaH2PO4, 0.5 mM MgSO4, 1.5 mM CaCl2, 10 mM Hepes, 5 mM NaHCO3; pH 7.4. 0.5 mM IBMX and 0.1% BSA, the final DMSO concentration is 1%). After 45 minutes' incubation at RT, the cAMP concentrations are determined using the AlphaScreen cAMP Assay Kit (Cat. No. #6760625R from PerkinElmer).

Chain of human GPR119 (Q8TDV5 whole entry): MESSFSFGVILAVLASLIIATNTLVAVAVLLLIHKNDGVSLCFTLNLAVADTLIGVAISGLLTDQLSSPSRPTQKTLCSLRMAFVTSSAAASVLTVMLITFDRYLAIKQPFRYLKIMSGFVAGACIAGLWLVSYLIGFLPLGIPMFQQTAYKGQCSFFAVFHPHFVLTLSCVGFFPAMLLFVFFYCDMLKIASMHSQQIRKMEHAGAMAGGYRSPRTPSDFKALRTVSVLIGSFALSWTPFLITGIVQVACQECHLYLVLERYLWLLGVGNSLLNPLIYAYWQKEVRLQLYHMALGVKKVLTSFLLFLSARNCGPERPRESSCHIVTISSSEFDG

SMILES | EC50 [nM]
CCC1CC(=O)NN=C1c1ccc2nc(-c3ccc(OC4CCOC4)cc3)oc2c1 (stereo not shown) [Example 181, 5-ethyl-6-{2-[4-(tetrahydro-furan-3-yloxy)-phenyl]-benzoxazol-6-yl}-4,5-dihydro-2H-pyridazin-3-one] | 156
CC(C)C1CC(=O)NN=C1c1ccc2nc(-c3ccccc3)oc2c1 (stereo not shown) [Example 32, 5-isopropyl-6-(2-phenyl-benzoxazol-6-yl)-4,5-dihydro-2H-pyridazin-3-one] | 869
CC1NC(=O)NN=C1c1ccc2nc(-c3ccccc3)oc2c1 (stereo not shown) [Example 142, 5-methyl-6-(2-phenyl-benzoxazol-6-yl)-4,5-dihydro-2H-[1,2,4]triazin-3-one] | 539
CC1(C)CC(c2ccc3nc(-c4ccccc4)oc3c2)=NNC1=O [Example 21, 4.4-dimethyl-6-(2-phenyl-benzoxazol-6-yl)-4,5-dihydro-2H-pyridazin-3-one] | > 10000
CCC[C@@H]1C(=O)NN=C(c2ccc3nc(-c4ccc(OC(C)C)cc4)oc3c2)[C@H]1C (relative stereo) [Example 171, trans-6-[2-(4-isopropoxy-phenyl)-benzoxazol-6-yl]-5-methyl-4-propyl-4,5-dihydro-2H-pyridazin-3-one] | 37
C[C@@H]1CC(c2ccc3nc(-c4ccccc4)oc3c2)=NNC1=O [Example 4, (R)-4-methyl-6-(2-phenyl-benzoxazol-6-yl)-4,5-dihydro-2H-pyridazin-3-one] | 596
CCC1CC(=O)NN=C1c1ccc2nc(-c3ccc(O[C@H]4CCC[C@@H]4N4CCCCC4)cc3)oc2c1 (relative stereo) [Example 225, 5-ethyl-6-{2-[4-(trans-2-piperidin-1-yl-cyclopentyloxy)-phenyl]-benzoxazol-6-yl}-4,5-dihydro-2H-pyridazin-3-one] | 231
CCC1CC(=O)NN=C1c1ccc2nc(-c3ccc(OCCC4CCCCC4)cc3)oc2c1 (stereo not shown) [Example 56, 6-{2-[4-(2-cyclohexyl-ethoxy)-phenyl]-benzoxazol-6-yl}-5-ethyl-4,5-dihydro-2H-pyridazin-3-one] | 170
CC1CC(=O)NN=C1c1ccc2nc(-c3cccc(OCC4CCNCC4)c3)oc2c1 (stereo not shown) [Example 73, 5-methyl-6-{2-[3-(piperidin-4-ylmethoxy)-phenyl]-benzoxazol-6-yl}-4,5-dihydro-2H-pyridazin-3-one hydrochloride] | 6770
CCC1CC(=O)NN=C1c1ccc2nc(-c3cccc(OCCN(C(C)C)C(C)C)c3)oc2c1 (stereo not shown) [Example 154, 6-{2-[3-(2-diisopropylamino-ethoxy)-phenyl]-benzoxazol-6-yl}-5-ethyl-4,5-dihydro-2H-pyridazin-3-one] | 424
CCC1CC(=O)NN=C1c1ccc2nc(-c3cccc(OCc4ccccn4)c3)oc2c1 (stereo not shown) [Example 65, 5-ethyl-6-{2-[3-(pyridin-2-ylmethoxy)-phenyl]-benzoxazol-6-yl}-4,5-dihydro-2H-pyridazin-3-one] | 426
O=C1NN=C(c2ccc3nc(-c4ccccc4)oc3c2)C2CCC12 (stereo not shown) [Example 10, 5-(2-phenyl-benzoxazol-6-yl)-3,4-diaza-bicyclo[4.2.0]oct-4-en-2-one] | 365
CCC1CC(=O)NN=C1c1ccc2nc(-c3ccc(OCc4ccccc4)cc3)oc2c1 (stereo not shown) [Example 33, 6-[2-(4-benzyloxy-phenyl)-benzoxazol-6-yl]-5-ethyl-4,5-dihydro-2H-pyridazin-3-one] | 70
CC[C@@H]1C(c2ccc3nc(-c4ccc(OC(C)C)cc4)oc3c2)=NNC(=O)[C@@H]1C (relative stereo) [Example 179, cis-5-ethyl-6-[2-(4-isopropoxy-phenyl)-benzoxazol-6-yl]-4-methyl-4,5-dihydro-2H-pyridazin-3-one] | 3840
CC1CC(=O)NN=C1c1ccc2nc(-c3cccc(OCC4CCN(C(=O)OC(C)(C)C)CC4)c3)oc2c1 (stereo not shown) [Example 69, tert-butyl 4-{3-[6-(4-methyl-6-oxo-1,4,5,6-tetrahydro-pyridazin-3-yl)-benzoxazol-2-yl]-phenoxymethyl}-piperidin-1-carboxylate] | 143
CCC1CC(=O)NN=C1c1ccc2nc(-c3cccc(OCc4cccnc4)c3)oc2c1 (stereo not shown) [Example 45, 5-ethyl-6-{2-[3-(pyridin-3-ylmethoxy)-phenyl]-benzoxazol-6-yl}-4,5-dihydro-2H-pyridazin-3-one] | 807
CCC1CC(=O)NN=C1c1ccc2nc(-c3ccc(OCCN4C[C@H]5CC[C@@H]4C5)cc3)oc2c1 (stereo partly shown) [Example 164, 6-(2-{4-[2-(2-aza-bicyclo[2.2.1]-hept-2-yl)-ethoxy]-phenyl}-benzoxazol-6-yl)-5-ethyl-4,5-dihydro-2H-pyridazin-3-one] | 552

SMILES | EC50 [nM]
CCC1CC(=O)NN=C1c1ccc2nc(-c3ccc(OC(C)C)cc3)oc2c1 (stereo not shown) [Example 99, 5-ethyl-6-[2-(4-isopropoxy-phenyl)-benzoxazol-6-yl]-4,5-dihydro-2H-pyridazin-3-one] | 59
CCCCC1CC(c2ccc3nc(-c4cccs4)oc3c2)=NNC1=O (stereo not shown) [Example 140, 4-butyl-6-(2-thiophen-2-yl-benzoxazol-6-yl)-4,5-dihydro-2H-pyridazin-3-one] | > 10000
O=C1NN=C(c2ccc3nc(-c4ccc(CN5CCCCC5)cc4)oc3c2)C2CC12 (stereo not shown) [Example 15, 5-[2-(4-piperidin-1-ylmethyl-phenyl)-benoxazol-6-yl]-3,4-diaza-bicyclo[4.1.0]hept-4-en-2-one] | 701
CCC1CC(=O)NN=C1c1ccc2nc(-c3ccc(C(C)C)cc3)oc2c1 (stereo not shown) [Example 175, 5-ethyl-6-[2-(4-isopropyl-phenyl)-benzoxazol-6-yl]-4,5-dihydro-2H-pyridazin-3-one] | 462
CC[C@H]1C(c2ccc3nc(-c4ccc(OC(C)C)cc4)oc3c2)=NNC(=O)[C@@H]1C [Example 208, (4R,5R)-5-ethyl-4-methyl-6-{2-[4-(propan-2-yloxy)phenyl]-1,3-benzoxazol-6-yl}-2,3,4,5-tetrahydropyridazin-3-one] | 88
CCC1CC(=O)NN=C1c1ccc2nc(-c3ccc(OCCN4CCN(C(C)CC)CC4)cc3)oc2c1 (stereo not shown) [Example 166, 6-(2-{4-[2-(4-sec-butyl-piperazin-1-yl)-ethoxy]-phenyl}-benzoxazol-6-yl)-5-ethyl-4,5-dihydro-2H-pyridazin-3-one] | 621
CC[C@H]1CC(=O)NN=C1c1ccc2nc(-c3ccc(OCCN(C(C)C)C(C)C)cc3)oc2c1 [Example 258, (S)-6-{2-[4-(2-diisopropylamino-ethoxy)-phenyl]-benzoxazol-6-yl}-5-ethyl-4,5-dihydro-2H-pyridazin-3-one] | 605
Cc1cccc(-c2nc3ccc(C4=NNC(=O)C5CC45)cc3o2)c1 (stereo not shown) [Example 12, 5-(2-m-tolyl-benzoxazol-6-yl)-3,4-diaza-bicyclo[4.1.0]hept-4-en-2-one] | 246
CCC1CC(=O)NN=C1c1ccc2nc(-c3ccc(OC[C@H]4CCCN4)cc3)oc2c1 (stereo partly drawn) [Example 239, 5-ethyl-6-(2-{4-[(2R)-pyrrolidin-2-ylmethoxy]phenyl}-1,3-benzoxazol-6-yl)-2,3,4,5-tetrahydropyridazin-3-one] | 1650
O=c1ccc(-c2ccc3nc(-c4ccccc4)oc3c2)n[nH]1 [Example 204, 6-(2-phenyl-1,3-benzoxazol-6-yl)-2,3-dihydropyridazin-3-one] | 414
CC1CC(=O)NN=C1c1ccc2nc(-c3cccc(OCc4ccccc4)c3)oc2c1 (stereo not shown) [Example 34, 6-[2-(3-benzyloxy-phenyl)-benzoxazol-6-yl]-5-methyl-4,5-dihydro-2H-pyridazin-3-one] | 193
CCC1CC(=O)NN=C1c1ccc2nc(-c3ccc(OCCN4CCN(C(C)=O)CC4)cc3)oc2c1 (stereo not shown) [Example 162, 6-(2-{4-[2-(4-acetyl-piperazin-1-yl)-ethoxy]-phenyl}-benzoxazol-6-yl)-5-ethyl-4,5-dihydro-2H-pyridazin-3-one] | 9120
CCC1CC(=O)NN=C1c1ccc2nc(-c3cccc(OCc4ccccc4)c3)oc2c1 (stereo not shown) [Example 35, 6-[2-(3-benzyloxy-phenyl)-benzoxazol-6-yl]-5-ethyl-4,5-dihydro-2H-pyridazin-3-one] | 148
O=C1NN=C(c2ccc3nc(-c4cccc(F)c4)oc3c2)C2CC12 (stereo not shown) [Example 17, 5-[2-(3-fluoro-phenyl)-benzoxazol-6-yl]-3,4-diaza-bicyclo[4.1.0]hept-4-en-2-one] | 223
CCC1CC(=O)NN=C1c1ccc2nc(-c3ccc(OCc4ccsc4)cc3)oc2c1 (stereo not shown) [Example 48, 5-ethyl-6-{2-[4-(thiophen-3-ylmethoxy)-phenyl]-benzoxazol-6-yl}-4,5-dihydro-2H-pyridazin-3-one] | 348
O=C1NN=C([C@H]2CCc3nc(-c4ccccc4)oc3C2)[C@H]2C[C@@H]12 [Example 131, (1R,6S)-5-((S)-2-phenyl-4,5,6,7-tetrahydro-benzoxazol-6-yl)-3,4-diaza-bicyclo[4.1.0]hept-4-en-2-one] | 7700
CC[C@@H]1CC(=O)NN=C1c1ccc2nc(-c3ccc(OCC(C)N4CCCCC4)cc3)oc2c1 (stereo partly drawn) [Example 237, 5(R)-ethyl-6-{2-[4-(2-piperidin-1-yl-propoxy)-phenyl]-benzoxazol-6-yl}-4,5-dihydro-2H-pyridazin-3-one] | 73
